pEC50, pIC50, pKi: −log10 of the molar value. Peptide text beside a SMILES is read from it.
What was measured:
Complement C3 = Complement C3 (Homo sapiens, UniProt P01024); assay: Inhibition of C3 in human serum by ELISA
Complement C2 [1] = molecular target: T1, Complement C2 (Homo sapiens, UniProt P06681); assay: Inhibition of human C2-mediated C3 processing after 24 hrs by SDS-PAGE
T1 sequence (P06681 whole entry): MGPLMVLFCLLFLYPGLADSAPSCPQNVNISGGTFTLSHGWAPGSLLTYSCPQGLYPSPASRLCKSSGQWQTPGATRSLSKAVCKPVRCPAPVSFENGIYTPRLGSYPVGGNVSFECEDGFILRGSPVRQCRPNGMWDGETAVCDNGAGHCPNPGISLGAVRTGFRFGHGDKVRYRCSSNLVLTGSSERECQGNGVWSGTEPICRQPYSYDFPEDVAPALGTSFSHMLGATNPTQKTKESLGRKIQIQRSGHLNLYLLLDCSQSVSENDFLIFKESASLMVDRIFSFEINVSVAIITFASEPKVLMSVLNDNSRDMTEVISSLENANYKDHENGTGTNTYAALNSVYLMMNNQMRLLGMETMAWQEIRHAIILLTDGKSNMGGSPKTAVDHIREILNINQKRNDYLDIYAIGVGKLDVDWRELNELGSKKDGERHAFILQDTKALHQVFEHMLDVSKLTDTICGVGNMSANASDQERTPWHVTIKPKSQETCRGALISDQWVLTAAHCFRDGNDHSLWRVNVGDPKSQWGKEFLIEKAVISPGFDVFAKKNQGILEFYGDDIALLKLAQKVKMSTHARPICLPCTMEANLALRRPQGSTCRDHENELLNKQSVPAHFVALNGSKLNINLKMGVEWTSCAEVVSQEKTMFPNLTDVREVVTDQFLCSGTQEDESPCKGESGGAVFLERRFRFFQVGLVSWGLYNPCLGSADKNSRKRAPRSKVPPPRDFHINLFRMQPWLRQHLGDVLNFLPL

Complement C2 [2] = molecular target: T1, Complement C2; assay: Inhibition of C2-mediated MAC formation in human serum by ELISA
Complement C2 [3] = molecular target: T1, Complement C2; assay: Competitive/reversible inhibition of human C2 using Ac-SHLGLAR-pNA as substrate
[4] = Oral bioavailability in Wistar rat at 10 mg/kg; type: ADME, organism-based; conditions: in vivo
[5] = Half life in Wistar rat at 10 mg/kg, po or 1 mg/kg, iv; type: ADME, organism-based; conditions: in vivo
[6] = molecular target: T2, Mannan-binding lectin serine protease 2 (Homo sapiens, UniProt O00187); assay: Inhibition of recombinant […] fragment of MASP-2 (unknown origin)
[7] = molecular target: T2, Mannan-binding lectin serine protease 2; assay: Inhibition of MASP2 (unknown origin)-induced lectin pathway by ELISA
Complement factor D [8] = molecular target: T3, Complement factor D (Homo sapiens, UniProt P00746); assay: Displacement of Cy5 from recombinant human biotin labeled factor D expressed in Escherichia coli after 2 hrs by TR-FRET assay
[9] = molecular target: T4, C3a anaphylatoxin chemotactic receptor (Homo sapiens, UniProt Q16581); assay: Agonist activity at C3aR in HMDM assessed as induction of Ca2+ release; type: functional
T4 sequence (Q16581 whole entry): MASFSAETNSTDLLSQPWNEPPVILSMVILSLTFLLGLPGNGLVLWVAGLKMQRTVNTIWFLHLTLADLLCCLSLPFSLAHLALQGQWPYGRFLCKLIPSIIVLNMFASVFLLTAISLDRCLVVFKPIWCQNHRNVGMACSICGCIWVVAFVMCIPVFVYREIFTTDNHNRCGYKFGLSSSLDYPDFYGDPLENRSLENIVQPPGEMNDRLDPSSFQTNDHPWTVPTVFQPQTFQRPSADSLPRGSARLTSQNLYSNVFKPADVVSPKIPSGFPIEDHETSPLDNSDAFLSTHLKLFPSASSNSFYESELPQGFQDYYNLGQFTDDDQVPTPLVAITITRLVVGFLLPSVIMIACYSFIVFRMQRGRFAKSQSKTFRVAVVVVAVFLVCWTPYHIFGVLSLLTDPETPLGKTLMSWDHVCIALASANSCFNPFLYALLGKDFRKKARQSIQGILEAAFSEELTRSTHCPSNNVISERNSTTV

Integrin alpha-M/beta-2 [10] = molecular target: T5, Integrin alpha-M/beta-2 (Homo sapiens, UniProt P05107+P11215); assay: Antagonist activity at CR3 in carboxyfluorescein diacetate succiminidyl ester-labeled human PMN assessed as inhibition of TNF/PMA-stimulated adhesion of PMN to fibrinogen preincubated for 10 mins followed by TNF/PMA addition by fluorescence assay; type: protein-complex assay
Integrin alpha-M/beta-2 [11] = molecular target: T5, Integrin alpha-M/beta-2; assay: Inhibition of C3bi-AP binding to CR3 derived from human PMN; type: protein-complex assay
Complement factor D [12] = molecular target: T3, Complement factor D
Description: Inhibition of factor D in human serum assessed as decrease in C3 deposition on PNH erythrocytes

[13] = Inhibition of factor D in […]-activated dog serum assessed as decrease in human erythrocyte lysis; conditions: Canis lupus familiaris
[14] = Inhibition of factor D in […]-activated cat serum assessed as decrease in human erythrocyte lysis; conditions: Felis catus
[15] = molecular target: T4, C3a anaphylatoxin chemotactic receptor; assay: Antagonist activity at C3aR in HMDM assessed as inhibition of agonist-induced Ca2+ release; type: functional
[16] = molecular target: T6, Mannan-binding lectin serine protease 1 (Homo sapiens, UniProt P48740); assay: Inhibition of MASP-1-mediated C3 deposition in human serum after 30 mins by ELISA
T6 sequence (P48740 whole entry): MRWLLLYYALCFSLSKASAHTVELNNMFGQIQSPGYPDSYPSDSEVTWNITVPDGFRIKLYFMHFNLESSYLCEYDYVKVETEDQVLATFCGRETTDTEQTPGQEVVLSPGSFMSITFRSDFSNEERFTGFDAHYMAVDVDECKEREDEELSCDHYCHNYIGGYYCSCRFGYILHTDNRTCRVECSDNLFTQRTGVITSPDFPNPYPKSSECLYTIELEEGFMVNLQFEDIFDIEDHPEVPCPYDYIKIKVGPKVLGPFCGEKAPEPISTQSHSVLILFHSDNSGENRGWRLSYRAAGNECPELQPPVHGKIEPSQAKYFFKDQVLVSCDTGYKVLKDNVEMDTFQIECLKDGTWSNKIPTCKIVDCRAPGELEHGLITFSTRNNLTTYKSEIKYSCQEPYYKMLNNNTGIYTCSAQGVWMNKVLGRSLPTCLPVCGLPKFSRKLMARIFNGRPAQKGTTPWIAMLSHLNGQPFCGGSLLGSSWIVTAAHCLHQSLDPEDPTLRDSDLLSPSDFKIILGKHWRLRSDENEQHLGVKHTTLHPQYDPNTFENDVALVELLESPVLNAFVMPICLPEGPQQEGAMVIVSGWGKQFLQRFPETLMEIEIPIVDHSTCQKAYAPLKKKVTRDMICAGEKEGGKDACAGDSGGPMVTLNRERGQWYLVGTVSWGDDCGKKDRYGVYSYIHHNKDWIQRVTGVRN

[17] = molecular target: T2, Mannan-binding lectin serine protease 2; assay: Inhibition of MASP-2-mediated C4 deposition in human serum after 1 hr by ELISA
[18] = molecular target: T2, Mannan-binding lectin serine protease 2; assay: Inhibition of MASP-2 (unknown origin) using Z-L-LysSBzl hydrochloride as substrate preincubated for 1 hr followed by substrate addition
Complement factor B = Complement factor B (Homo sapiens, UniProt P00751); assay: Displacement of Cy5 from recombinant human biotin-labeled factor B expressed in drosophila cells after 2 hrs by TR-FRET assay; type: cell-based
[19] = molecular target: T4, C3a anaphylatoxin chemotactic receptor; assay: Antagonist activity at human C3aR expressed in RBL-2H3 cells assessed as inhibition of C3a-induced intracellular calcium mobilization; type: functional, cell-based
[20] = molecular target: T4, C3a anaphylatoxin chemotactic receptor; assay: Displacement of 125I-C3a from human C3aR expressed in RBL-2H3 cells; type: cell-based
[21] = molecular target: T7, C5a anaphylatoxin chemotactic receptor 1 (Homo sapiens, UniProt P21730); assay: Antagonist activity at recombinant human C5aR1 expressed in Sf9 insect cell membranes co-expressing G-alphai2,G-beta1 and G-gamma2 assessed as inhibition of recombinant human C5a-induced [35S]GTPgammaS binding after 60 mins by liquid scintillation spectrometry; type: functional
T7 sequence (P21730 whole entry): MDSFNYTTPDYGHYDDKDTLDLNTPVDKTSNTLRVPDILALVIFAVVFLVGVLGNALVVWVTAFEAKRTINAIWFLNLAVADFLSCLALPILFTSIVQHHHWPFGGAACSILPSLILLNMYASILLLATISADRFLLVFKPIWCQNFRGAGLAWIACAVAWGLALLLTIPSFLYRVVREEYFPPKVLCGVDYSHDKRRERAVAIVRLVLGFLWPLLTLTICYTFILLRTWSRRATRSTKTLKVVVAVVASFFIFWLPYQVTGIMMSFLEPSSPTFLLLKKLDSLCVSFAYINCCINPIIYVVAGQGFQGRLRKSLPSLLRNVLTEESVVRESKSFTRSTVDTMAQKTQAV

[22] = molecular target: T4, C3a anaphylatoxin chemotactic receptor; assay: Displacement of 125I-C3a from recombinant human C3aR expressed in HEK293 cell membranes after 3 hrs by scintillation proximity assay

T2 sequence (O00187 16-444 limits assumed): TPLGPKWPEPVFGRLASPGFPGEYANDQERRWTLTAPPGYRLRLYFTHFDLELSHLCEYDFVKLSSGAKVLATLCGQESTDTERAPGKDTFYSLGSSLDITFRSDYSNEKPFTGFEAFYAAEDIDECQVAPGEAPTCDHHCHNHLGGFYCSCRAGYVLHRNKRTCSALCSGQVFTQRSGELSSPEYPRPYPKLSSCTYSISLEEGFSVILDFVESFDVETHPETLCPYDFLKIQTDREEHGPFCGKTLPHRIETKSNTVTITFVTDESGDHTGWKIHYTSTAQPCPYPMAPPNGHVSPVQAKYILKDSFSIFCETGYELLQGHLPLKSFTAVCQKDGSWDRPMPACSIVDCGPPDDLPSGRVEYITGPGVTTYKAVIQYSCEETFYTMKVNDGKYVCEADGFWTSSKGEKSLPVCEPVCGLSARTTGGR
T2 sequence (O00187 445-686 limits assumed): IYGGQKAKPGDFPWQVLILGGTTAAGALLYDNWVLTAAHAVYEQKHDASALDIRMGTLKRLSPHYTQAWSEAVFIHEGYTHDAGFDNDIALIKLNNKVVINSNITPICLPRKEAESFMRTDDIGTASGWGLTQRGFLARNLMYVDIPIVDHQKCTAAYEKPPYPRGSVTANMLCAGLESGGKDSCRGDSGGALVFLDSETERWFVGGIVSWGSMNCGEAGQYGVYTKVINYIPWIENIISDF
T5 sequence (P05107 23-769 limits assumed, other chains not shown): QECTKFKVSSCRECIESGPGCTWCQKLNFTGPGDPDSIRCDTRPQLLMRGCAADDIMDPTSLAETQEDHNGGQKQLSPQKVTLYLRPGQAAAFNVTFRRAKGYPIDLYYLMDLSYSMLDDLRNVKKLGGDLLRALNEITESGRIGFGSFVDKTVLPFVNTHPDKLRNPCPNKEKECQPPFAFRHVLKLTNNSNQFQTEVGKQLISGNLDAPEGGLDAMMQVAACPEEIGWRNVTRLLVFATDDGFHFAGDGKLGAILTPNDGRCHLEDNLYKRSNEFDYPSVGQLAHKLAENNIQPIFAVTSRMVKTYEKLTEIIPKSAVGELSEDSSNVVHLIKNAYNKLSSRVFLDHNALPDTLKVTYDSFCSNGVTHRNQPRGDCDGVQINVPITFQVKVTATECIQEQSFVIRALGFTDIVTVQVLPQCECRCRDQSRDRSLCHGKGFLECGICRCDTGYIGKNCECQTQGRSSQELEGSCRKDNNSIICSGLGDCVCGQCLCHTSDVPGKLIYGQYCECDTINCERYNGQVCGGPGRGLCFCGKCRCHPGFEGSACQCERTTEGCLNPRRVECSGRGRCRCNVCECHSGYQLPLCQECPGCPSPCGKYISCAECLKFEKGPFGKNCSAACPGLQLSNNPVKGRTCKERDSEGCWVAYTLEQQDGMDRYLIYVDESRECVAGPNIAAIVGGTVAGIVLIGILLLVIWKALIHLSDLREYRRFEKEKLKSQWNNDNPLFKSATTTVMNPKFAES
T3 sequence (P00746 whole entry): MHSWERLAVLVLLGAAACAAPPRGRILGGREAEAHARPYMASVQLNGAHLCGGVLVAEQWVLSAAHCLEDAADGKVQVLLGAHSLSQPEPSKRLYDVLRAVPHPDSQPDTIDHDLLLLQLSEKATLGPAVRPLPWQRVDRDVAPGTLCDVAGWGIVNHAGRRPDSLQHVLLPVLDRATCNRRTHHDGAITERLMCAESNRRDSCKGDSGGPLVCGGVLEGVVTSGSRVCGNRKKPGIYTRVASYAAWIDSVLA
Complement factor B, sequence (P00751 whole entry): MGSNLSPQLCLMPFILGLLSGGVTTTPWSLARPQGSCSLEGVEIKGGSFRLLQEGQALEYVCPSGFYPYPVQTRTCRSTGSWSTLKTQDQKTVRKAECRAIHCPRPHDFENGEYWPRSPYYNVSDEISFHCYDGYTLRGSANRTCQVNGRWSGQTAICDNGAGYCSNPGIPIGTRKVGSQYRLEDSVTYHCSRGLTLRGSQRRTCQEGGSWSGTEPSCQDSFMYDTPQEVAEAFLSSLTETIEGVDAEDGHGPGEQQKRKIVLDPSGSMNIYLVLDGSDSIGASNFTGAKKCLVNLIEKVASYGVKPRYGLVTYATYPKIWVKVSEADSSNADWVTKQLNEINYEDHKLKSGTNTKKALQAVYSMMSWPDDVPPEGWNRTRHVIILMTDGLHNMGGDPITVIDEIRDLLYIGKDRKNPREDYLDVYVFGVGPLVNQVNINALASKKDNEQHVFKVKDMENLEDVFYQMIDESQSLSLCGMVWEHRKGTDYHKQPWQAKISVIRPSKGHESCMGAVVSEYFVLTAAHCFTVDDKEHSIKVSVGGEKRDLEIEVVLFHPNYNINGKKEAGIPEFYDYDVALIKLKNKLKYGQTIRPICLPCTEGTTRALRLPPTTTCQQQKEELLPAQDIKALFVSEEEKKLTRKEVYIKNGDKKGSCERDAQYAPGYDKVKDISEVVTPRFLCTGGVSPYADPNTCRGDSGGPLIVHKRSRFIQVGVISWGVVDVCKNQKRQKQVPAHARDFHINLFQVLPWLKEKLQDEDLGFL
Complement C3, sequence (P01024 23-667 limits assumed): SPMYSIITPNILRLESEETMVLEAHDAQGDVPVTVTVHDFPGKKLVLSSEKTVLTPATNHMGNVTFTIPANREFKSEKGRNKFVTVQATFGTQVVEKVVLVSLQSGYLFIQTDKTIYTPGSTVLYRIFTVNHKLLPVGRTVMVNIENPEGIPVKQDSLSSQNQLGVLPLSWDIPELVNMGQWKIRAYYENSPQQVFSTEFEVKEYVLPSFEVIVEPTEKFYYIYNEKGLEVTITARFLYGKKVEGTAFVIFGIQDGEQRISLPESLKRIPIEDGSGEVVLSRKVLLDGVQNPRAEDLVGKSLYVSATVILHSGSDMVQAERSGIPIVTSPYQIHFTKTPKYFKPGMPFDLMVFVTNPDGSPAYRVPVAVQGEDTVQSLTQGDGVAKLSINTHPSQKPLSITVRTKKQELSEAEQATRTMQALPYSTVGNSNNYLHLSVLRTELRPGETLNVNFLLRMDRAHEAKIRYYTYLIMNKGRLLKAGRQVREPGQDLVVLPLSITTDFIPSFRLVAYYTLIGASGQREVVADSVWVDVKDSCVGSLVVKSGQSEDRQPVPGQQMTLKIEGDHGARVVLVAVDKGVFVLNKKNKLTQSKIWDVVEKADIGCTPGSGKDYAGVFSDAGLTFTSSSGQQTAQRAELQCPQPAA
Complement C3, sequence (P01024 672-1663 limits assumed): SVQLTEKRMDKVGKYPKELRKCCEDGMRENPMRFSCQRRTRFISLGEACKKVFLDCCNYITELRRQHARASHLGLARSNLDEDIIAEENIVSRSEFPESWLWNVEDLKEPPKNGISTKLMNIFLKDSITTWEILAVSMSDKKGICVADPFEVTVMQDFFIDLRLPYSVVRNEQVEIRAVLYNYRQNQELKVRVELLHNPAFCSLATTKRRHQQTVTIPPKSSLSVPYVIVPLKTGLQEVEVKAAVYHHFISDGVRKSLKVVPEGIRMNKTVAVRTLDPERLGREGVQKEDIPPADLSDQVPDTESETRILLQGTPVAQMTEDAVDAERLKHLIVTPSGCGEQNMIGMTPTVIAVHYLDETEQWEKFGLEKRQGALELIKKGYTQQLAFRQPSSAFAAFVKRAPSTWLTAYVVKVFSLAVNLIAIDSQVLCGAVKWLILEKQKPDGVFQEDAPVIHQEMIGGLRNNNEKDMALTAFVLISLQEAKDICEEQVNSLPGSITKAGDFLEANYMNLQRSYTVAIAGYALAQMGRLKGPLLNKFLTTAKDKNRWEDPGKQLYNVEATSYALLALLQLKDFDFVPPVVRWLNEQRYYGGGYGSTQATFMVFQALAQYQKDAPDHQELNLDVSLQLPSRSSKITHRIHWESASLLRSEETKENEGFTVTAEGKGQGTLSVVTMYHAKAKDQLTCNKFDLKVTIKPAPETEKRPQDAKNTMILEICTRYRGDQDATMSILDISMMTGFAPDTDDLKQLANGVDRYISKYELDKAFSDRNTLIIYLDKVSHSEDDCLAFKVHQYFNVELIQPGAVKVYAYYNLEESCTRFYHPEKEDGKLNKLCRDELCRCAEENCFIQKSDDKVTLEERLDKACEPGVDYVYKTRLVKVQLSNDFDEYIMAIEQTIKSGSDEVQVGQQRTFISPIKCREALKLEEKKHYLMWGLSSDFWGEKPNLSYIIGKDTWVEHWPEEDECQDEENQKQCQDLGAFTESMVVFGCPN

CC[C@H](C)[C@H](NC(C)=O)C(=O)N[C@H]1CSSC[C@@H](C(=O)N(C)[C@H](C(N)=O)[C@@H](C)CC)NC(=O)[C@H](CCCNC(=N)N)NC(=O)[C@H](Cc2c[nH]cn2)NC(=O)[C@H](C)NC(=O)CN(C)C(=O)[C@H](Cc2c[nH]c3ccccc23)NC(=O)[C@H](CC(=O)O)NC(=O)[C@H](CCC(N)=O)NC(=O)[C@H](Cc2cn(C)c3ccccc23)NC(=O)[C@H](C(C)C)NC1=O
pIC50 (Complement C3): 7.21

CC(=O)N[C@@H](CCCNC(=N)N)C(=O)N[C@@H](CC(C)C)C(=O)N[C@@H](CC(C)C)C(=O)N[C@@H](CC(C)C)C(=O)N[C@@H](C)C(=O)N[C@H](C=O)CCCNC(=N)N (Ac-RLLLAR-aldehyde)
pIC50 (Complement C2 [1]): 6.00 to 6.30
pIC50 (Complement C2 [2]): 5.14
pIC50 (Complement C2 [3]): 6.48

COc1ccc2c(c1)C(C(=O)N(Cc1ccc(N(C)C)cc1)c1ccc(C(C)C)cc1)CCC2 (stereo unspecified)
bioavailability [4]: 70%
half-life [5]: 60 to 180 min

CC(C)C[C@H](NC(=O)[C@H](CCCCN)NC(=O)[C@@H](NC(=O)[C@H](CS)NC(=O)[C@@H](NC(=O)[C@H](C)NC(=O)[C@H](CO)NC(=O)[C@H](CCCCN)NC(=O)CNC(=O)[C@H](CC(=O)O)NC(=O)[C@H](CO)NC(=O)CNC(=O)[C@H](CS)NC(=O)[C@H](CCCNC(=N)N)NC(=O)[C@H](CS)NC(=O)[C@@H](NC(=O)[C@H](CC(N)=O)NC(=O)[C@H](CS)NC(=O)[C@H](CCCCN)NC(=O)[C@H](CC(=O)O)NC(=O)[C@H](CCCCN)NC(=O)[C@H](Cc1ccccc1)NC(=O)[C@@H](NC(=O)[C@@H](NC(=O)CNC(=O)[C@@H]1CCCN1C(=O)[C@H](CCC(=O)O)NC(=O)[C@H](CS)NC(=O)[C@@H](NC(=O)[C@@H](NC(=O)[C@@H](N)CCC(=O)O)C(C)C)[C@@H](C)O)[C@@H](C)O)[C@@H](C)O)[C@@H](C)O)C(C)C)[C@@H](C)O)C(=O)N[C@@H](Cc1c[nH]c2ccccc12)C(=O)N[C@@H](CS)C(=O)N[C@@H](CC(N)=O)C(=O)N[C@@H](CCC(N)=O)C(=O)O (H-EVTCEPGTTFKDKCNTCRCGSDGKSAVCTKLWCNQ-OH)
pKi [6]: 8.22
pIC50 [7]: 7.18

CC(=O)N[C@@H](Cc1ccccc1)C(=O)N[C@H]1CCCNC(=O)[C@H](CCCNC(=N)N)NC(=O)[C@H](Cc2c[nH]c3ccccc23)NC(=O)[C@@H](CC2CCCCC2)NC(=O)[C@@H]2CCCN2C1=O
bioavailability [4]: ≤ 2%
half-life [5]: 1200 min

CCc1cccc(CC)c1-c1cc(OC(C)C)c2c(n1)CCCC2Nc1ccccc1CCO (stereo unspecified)
half-life [5]: 60 to 180 min

Cn1cc(-c2cc(COc3ccccc3CC(=O)O)cc(-c3cccc(CC(N)=O)c3F)c2)cn1
pIC50 (Complement factor D [8]): 7.64

N=C(N)NCCC[C@H](Nc1nccc2[nH]c(C(c3ccccc3)c3ccccc3)nc12)C(=O)O
pEC50 [9]: 7.82

CCN1/C(=C/C=C/c2sc3ccccc3[n+]2CC)Sc2ccccc21
pIC50 (Integrin alpha-M/beta-2 [10]): 5.00 to 5.60
pIC50 (Integrin alpha-M/beta-2 [11]): 6.48

CC(=O)c1nn(CC(=O)N2C[C@H](F)C[C@H]2C(=O)Nc2cccc(Br)n2)c2ccc(-c3cnc(C)nc3)cc12
IC90 (Complement factor D [12]): 89 nM

CC(=O)Oc1ccc(-c2ccc(OC(C)=O)c(C(=O)O)c2)cc1C(=O)O
pIC50 [13]: 7.00
pIC50 [14]: 7.00

N=C(N)NCCC[C@@H](C(=O)O)N1Cc2nc(C(c3ccccc3)c3ccccc3)sc2C1=O
pIC50 [15]: 6.49

CC[C@H](C)[C@H](NC(=O)[C@H](CS)NC(=O)[C@@H](NC(=O)[C@@H]1CCCN1C(=O)[C@@H]1CCCN1C(=O)[C@H](Cc1ccc(O)cc1)NC(=O)[C@H](CO)NC(=O)[C@H](CCCNC(=N)N)NC(=O)[C@H](CO)NC(=O)[C@H](CS)NC(=O)[C@H](Cc1ccc(O)cc1)NC(=O)CN)C(C)C)C(=O)N1CCC[C@H]1C(=O)N[C@@H](CC(=O)O)C(=O)O (H-GYCSRSYPPVCIPD-OH)
pIC50 [16]: 6.66
pIC50 [17]: 5.57
pKi [18]: 6.74

COc1cc(C)c2[nH]ccc2c1C(C)(C)c1nc2cc(C#N)cnc2[nH]1
pIC50 (Complement factor B): 7.52

N=C(N)NCCC[C@H](NC(=O)COCC(c1ccccc1)c1ccccc1)C(=O)O
pIC50 [19]: 7.55
pIC50 [20]: 6.70

C[C@@H](C(=O)N(Cc1ccccc1F)C1Cc2ccccc2C1)N1CCc2ccccc2[C@@H]1c1cccc2ccccc12
pKi [21]: 7.82

N=C(N)NCCC[C@H](NC(=O)c1cccn(Cc2ccccc2Br)c1=O)C(=O)O
pIC50 [22]: 7.30

CC[n+]1c(/C=C/C=C/N2CCCc3ccccc32)sc2ccc3ccccc3c21
pIC50 (Integrin alpha-M/beta-2 [10]): 5.00 to 5.60
pIC50 (Integrin alpha-M/beta-2 [11]): 6.85

CC(=O)Oc1ccc(Cc2ccc(OC(C)=O)c(C(=O)O)c2)cc1C(=O)O
pIC50 [13]: 7.00
pIC50 [14]: 7.00
